Experiments:
Assay type in all cases: cell-based
BHK-21 cells = assay: Anti-fibrosis activity test: inhibition of BHK-21 cell proliferation (CCK-8); conditions: Mesocricetus auratus, BHK-21, 48 h
How it was run: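 Cells plated 2×10^4 cells/mL; 24 h attach; compound dilutions, triplicate, 48 h, 37° C/5% CO2; CCK-8 2 h; A450; IR = (1−Ai/Ao)×100%; IC50 by curve fit.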

[1] = tested on: human lung fibroblasts HFL1; assay: Anti-fibrosis activity test: inhibition of proliferation of human lung fibroblasts HFL1 (CCK-8); conditions: Homo sapiens, HFL1, 48 h
How it was run: (§1)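 A CCK-8 proliferation assay was run: cells at 2×10^4 cells/mL, adherent for 24 h, then incubated 48 h at 37° C with compound dilutions. A450 was recorded 2 h after CCK-8 addition and converted to percent inhibition versus blank for IC50 determination.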

[2] = tested on: human hepatic stellate cells LX-2; assay: Anti-fibrosis activity test: inhibition of proliferation of human hepatic stellate cells LX-2 (CCK-8); conditions: Homo sapiens, 48 h
How it was run: as §1

[3] = tested on: human fibrosarcoma cells HT-1080; assay: Anti-fibrosis activity test: inhibition of proliferation of human fibrosarcoma cells HT-1080 (CCK-8); conditions: Homo sapiens, HT-1080, 48 h
How it was run: as §1

[4] = tested on: human dermal fibroblasts CCC-ESF-1; assay: Anti-fibrosis activity test: inhibition of proliferation of human dermal fibroblasts CCC-ESF-1 (CCK-8); conditions: Fibroblast
How it was run: as §1

[5] = tested on: human embryonic lung fibroblast IMR-90; assay: Anti-fibrosis activity test: inhibition of proliferation of human embryonic lung fibroblast IMR-90 (CCK-8)
How it was run: as §1

[6] = tested on: cardiac fibroblast RAT-iCell-C002; assay: Anti-fibrosis activity test: inhibition of proliferation of cardiac fibroblast RAT-iCell-C002 (CCK-8); conditions: Cardiac fibroblast, 48 h
How it was run: as §1

NF-κB = assay: Immunological activity test: inhibition of NF-κB activity; conditions: initial concentration of 30 μM; a/b isomers given as first/second symbol; read-out: IC50 (μM), inhibitory activity against NF-κB
How it was run: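 Compounds were first screened for inhibition of NF-κB activity at 30 μM, with parthenolide as the positive control. IC50 values were then determined for the compounds by further analysis of the assay data.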

[7] = tested on: mouse macrophages (RAW264.7); assay: Lipopolysaccharide-induced NO secretion in macrophages (Griess); conditions: Mus musculus, RAW264.7, 24 h, RAW264.7, LPS 1 μg/ml, a/b isomers given as first/second symbol, read-out: IC50 (μM), inhibition of lipopolysaccharide-induced NO secretion in macrophages
How it was run: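 Absorbance at 548 nm after Griess reagent addition to culture supernatant gave NO content; inhibition rate was derived relative to blank control. Cells were mouse RAW264.7 macrophages exposed to compounds and 1 μg/ml LPS for 24 hours.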

[8] = CCK-8, 48 hours after administration
[9] = human lung fibroblasts HFL1, CCK-8, 48 hours
[10] = human hepatic stellate cells LX-2, CCK-8, 48 hours
[11] = human fibrosarcoma cells HT-1080, CCK-8, 48 hours
[12] = human dermal fibroblasts CCC-ESF-1, CCK-8, 48 hours
[13] = human embryonic lung fibroblast IMR-90, CCK-8, 48 hours
[14] = cardiac fibroblast RAT-iCell-C002, CCK-8, 48 hours

Structure (SMILES)	IC50 [3, 11] [mM]	IC50 (NF-κB) [µM]	IC50 [7] [µM]	IC50 ([3]; HT-1080 cells, 48 h, CCK-8) [mM]	IC50 (BHK-21 cells; [8]) [mM]	IC50 [1, 9] [mM]	IC50 [2, 10] [mM]	IC50 [4, 12] [mM]	IC50 [5, 13] [mM]	IC50 [6, 14] [mM]	IC50 (BHK-21 cells; 48 h, CCK-8) [mM]	IC50 ([1]; HFL1 cells, 48 h, CCK-8) [mM]	IC50 ([2]; LX-2, 48 h, LX-2 cells, CCK-8) [mM]	IC50 ([4]; Homo sapiens, CCC-ESF-1 cells, 48 h, CCK-8) [mM]	IC50 ([5]; Homo sapiens, IMR-90 cells, 48 h, CCK-8) [mM]	IC50 ([6]; RAT-iCell-C002 cells, CCK-8) [mM]
O=C1c2c(nc3ccccc3c2OCc2cc(F)cc(F)c2)-c2cccn21 [Compound 579b, 9-((3,5-difluorobenzyl)oxy)-10H-pyrrolizino[1,2-b]quinolin-10-one]	0.05 to 5	0.1 to 1	1 to 10		0.05 to 5	0.05 to 5	0.05 to 5	0.05 to 5	0.05 to 5	0.05 to 5						
O=C1c2c(n(Cc3cccc(Cl)c3)c3cccc(Cl)c3c2=O)-c2cccn21 [Compound 478a, 8-Chloro-4-(3-chlorobenzyl)-9H-pyrrolizino[1,2-b]quinoline-9,10(4H)-dione]	0.05 to 5	10 to 50	0.1 to 1		0.05 to 5	0.05 to 5	0.05 to 5	0.05 to 5	0.05 to 5	0.05 to 5						
Cc1ccn2c1-c1c(nc3ccccc3c1O)C2=O [Compound 797b, 11-hydroxy-1-methyl-5H-pyrrolizino[2,1-b]quinolin-5-one]		0.1 to 1	1 to 10	0.05 to 5							0.05 to 5	0.05 to 5	0.05 to 5	0.05 to 5	0.05 to 5	0.05 to 5
O=C1c2c(n(Cc3ccccc3)c3ccccc3c2=O)-c2cccn21 [Compound 103a, 4-Benzyl-9H-pyrrolizino[1,2-b]quinoline-9,10(4H)-dione]	0.05 to 5	1 to 10	0.1 to 1		0.05 to 5	0.05 to 5	0.05 to 5	0.05 to 5	< 0.05	0.05 to 5						

Now from value to compound, other results behind:

IC50 [3, 11] [mM]	IC50 (NF-κB) [µM]	IC50 [7] [µM]	IC50 ([3]; HT-1080 cells, 48 h, CCK-8) [mM]	Structure (SMILES)	IC50 (BHK-21 cells; [8]) [mM]	IC50 [1, 9] [mM]	IC50 [2, 10] [mM]	IC50 [4, 12] [mM]	IC50 [5, 13] [mM]	IC50 [6, 14] [mM]	IC50 (BHK-21 cells; 48 h, CCK-8) [mM]	IC50 ([1]; HFL1 cells, 48 h, CCK-8) [mM]	IC50 ([2]; LX-2, 48 h, LX-2 cells, CCK-8) [mM]	IC50 ([4]; Homo sapiens, CCC-ESF-1 cells, 48 h, CCK-8) [mM]	IC50 ([5]; Homo sapiens, IMR-90 cells, 48 h, CCK-8) [mM]	IC50 ([6]; RAT-iCell-C002 cells, CCK-8) [mM]
0.05 to 5	1 to 10	1 to 10		O=C1c2c(n(Cc3ccc(F)cc3)c3ccccc3c2=O)-c2cccn21 [Compound 588a, 4-(4-Fluorobenzyl)-9H-pyrrolizino[1,2-b]quinoline-9,10(4H)-dione]	0.05 to 5	0.05 to 5	0.05 to 5	0.05 to 5	0.05 to 5	0.05 to 5						
0.05 to 5	1 to 10	1 to 10		O=C(O)c1ccccc1-c1ccc(Cn2c3c(c(=O)c4ccccc42)C(=O)n2cccc2-3)cc1 [Compound 81a, 4′-((9,10-Dioxo-9H-pyrrolizino[1,2-b]quinolin-4(10H)-yl)methyl)-[1,1′-biphenyl]-2-carboxylic acid]	< 0.05	0.05 to 5	< 0.05	0.05 to 5	< 0.05	0.05 to 5						
0.05 to 5	1 to 10	1 to 10		O=C1c2c(nc3ccccc3c2OCc2cc(F)c(F)c(F)c2F)-c2cccn21 [Compound 587b, 9-((2,3,4,5-tetrafluorobenzyl)oxy)-10H-pyrrolizino[1,2-b]quinolin-10-one]	0.05 to 5	0.05 to 5	0.05 to 5	0.05 to 5	0.05 to 5	0.05 to 5						
0.05 to 5	1 to 10	1 to 10		O=C1c2c(nc3cccc(F)c3c2OCc2ccc(F)cc2)-c2cccn21 [Compound 468b, 8-fluoro-9-((4-fluorobenzyl)oxy)-10H-pyrrolizino[1,2-b]quinolin-10-one]	0.05 to 5	0.05 to 5	0.05 to 5	0.05 to 5	0.05 to 5	0.05 to 5						
0.05 to 5	0.1 to 1	10 to 50		O=C1c2c([nH]c3cc(OC(F)(F)F)ccc3c2=O)-c2cccn21 [Compound 548a, 6-(Trifluoromethoxy)-9H-pyrrolizino[1,2-b]quinoline-9,10(4H)-dione]	0.05 to 5	0.05 to 5	< 0.05	0.05 to 5	0.05 to 5	0.05 to 5						

Source: US11040028B2, “Penicinotam derivative, preparation method and use thereof” (OCEAN UNIVERSITY OF CHINA, priority 2017, dated 2021)
